From ChEMBL document CHEMBL1134244, “Design and synthesis of a new sialyl Lewis X mimetic: how selective are the selectin receptors?” (Bioorg Med Chem Lett, 2001)

Columns and labels:
[1] = target: T1, E-selectin (Homo sapiens, UniProt P16581); assay: Concentration required to inhibit the interaction of Selectin E and HL-60 cells; assay type: cell-based
T1 sequence (P16581 whole entry): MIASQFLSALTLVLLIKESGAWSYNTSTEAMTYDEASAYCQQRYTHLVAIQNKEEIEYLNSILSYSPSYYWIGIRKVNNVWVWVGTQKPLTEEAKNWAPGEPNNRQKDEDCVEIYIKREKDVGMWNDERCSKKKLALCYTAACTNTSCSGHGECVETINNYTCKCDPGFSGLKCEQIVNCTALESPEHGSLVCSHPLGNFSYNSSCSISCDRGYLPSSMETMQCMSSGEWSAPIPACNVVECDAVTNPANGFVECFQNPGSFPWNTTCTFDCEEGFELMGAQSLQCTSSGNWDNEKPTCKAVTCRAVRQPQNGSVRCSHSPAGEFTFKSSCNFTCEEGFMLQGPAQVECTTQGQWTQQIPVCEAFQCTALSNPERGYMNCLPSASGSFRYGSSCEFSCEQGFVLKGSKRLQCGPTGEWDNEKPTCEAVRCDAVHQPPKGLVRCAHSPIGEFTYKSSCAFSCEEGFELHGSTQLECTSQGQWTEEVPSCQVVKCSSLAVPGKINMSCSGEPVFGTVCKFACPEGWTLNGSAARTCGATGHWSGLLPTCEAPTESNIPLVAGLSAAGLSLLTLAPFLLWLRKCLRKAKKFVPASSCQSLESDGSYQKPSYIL

[2] = target: T2, P-selectin (Homo sapiens, UniProt P16109); assay: Concentration required to inhibit the interaction of Selectin P and HL-60 cells; assay type: cell-based
T2 sequence (P16109 whole entry): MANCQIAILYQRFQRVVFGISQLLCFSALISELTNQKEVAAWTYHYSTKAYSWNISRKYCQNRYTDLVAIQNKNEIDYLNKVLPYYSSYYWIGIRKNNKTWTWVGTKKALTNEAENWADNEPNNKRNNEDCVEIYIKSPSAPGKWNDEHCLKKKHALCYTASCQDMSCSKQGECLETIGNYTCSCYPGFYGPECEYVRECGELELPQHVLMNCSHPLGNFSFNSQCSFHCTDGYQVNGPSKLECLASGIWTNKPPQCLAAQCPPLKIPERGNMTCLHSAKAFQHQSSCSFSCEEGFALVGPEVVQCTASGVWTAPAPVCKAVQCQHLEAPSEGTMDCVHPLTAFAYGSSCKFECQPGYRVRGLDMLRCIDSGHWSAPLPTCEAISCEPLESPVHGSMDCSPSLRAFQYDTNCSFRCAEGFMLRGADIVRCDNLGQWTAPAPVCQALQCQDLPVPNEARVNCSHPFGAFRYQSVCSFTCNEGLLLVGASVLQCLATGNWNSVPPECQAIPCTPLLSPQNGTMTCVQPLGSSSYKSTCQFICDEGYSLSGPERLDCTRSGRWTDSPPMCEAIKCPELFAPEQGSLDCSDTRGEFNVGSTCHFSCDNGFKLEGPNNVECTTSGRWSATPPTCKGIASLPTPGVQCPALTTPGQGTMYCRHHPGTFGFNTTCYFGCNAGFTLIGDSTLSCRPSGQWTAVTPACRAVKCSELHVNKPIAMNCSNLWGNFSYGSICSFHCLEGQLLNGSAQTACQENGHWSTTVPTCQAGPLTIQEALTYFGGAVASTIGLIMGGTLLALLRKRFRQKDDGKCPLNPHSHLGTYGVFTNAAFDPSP

IC50 [1]	IC50 [2]	Compound
7 mM	5 mM	CC(=O)N[C@H]1[C@H]([C@H](O)[C@H](O)CO)O[C@@](O[C@H]2[C@@H](O)[C@@H](CO)O[C@@H](O[C@@H]([C@H](O[C@@H]3O[C@@H](C)[C@@H](O)[C@@H](O)[C@@H]3O)[C@H](C=O)NC(C)=O)[C@H](O)CO)[C@@H]2O)(C(=O)O)C[C@@H]1O (single isomer, unassigned; enantiomer A) [SIALYL LEWIS X]
5 mM	4.5 mM	CC(=O)N[C@H]1[C@H]([C@H](O)[C@H](O)CO)O[C@@](O[C@H]2[C@@H](O)[C@@H](CO)O[C@@H](O[C@@H]([C@H](O[C@@H]3O[C@@H](C)[C@@H](O)[C@@H](O)[C@@H]3O)[C@H](C=O)NC(C)=O)[C@H](O)CO)[C@@H]2O)(C(=O)O)C[C@@H]1O (single isomer, unassigned; enantiomer B) [SIALYL LEWIS X]
5 mM	5.5 mM	CC(=O)N[C@H]1[C@H]([C@H](O)[C@H](O)CO)O[C@@](O[C@H]2[C@@H](O)[C@@H](CO)O[C@@H](O[C@@H]([C@H](O[C@@H]3O[C@@H](C)[C@@H](O)[C@@H](O)[C@@H]3O)[C@H](C=O)NC(C)=O)[C@H](O)CO)[C@@H]2O)(C(=O)O)C[C@@H]1O [SIALYL LEWIS X]
